Experiment: mn = molality of the nth substance listed, in mol/kg
Conditions: Liquid, Vibrating tube method

[Cl][Al]([Cl])[Cl] [aluminum chloride] + O
mass density [kg/m3]
Conditions	900 kPa	9900 kPa	19900 kPa	29900 kPa	39900 kPa	49900 kPa	59900 kPa	68400 kPa
298.12 K, m1 = 1	1105.53	1108.79	1112.3	1115.82	1119.28	1122.69	1125.95	1128.83
298.12 K, m1 = 2	1212.19	1214.96	1217.92	1220.94	1223.85	1226.72	1229.57	1232.02
323.07 K, m1 = 1	1096.76	1099.96	1103.44	1106.84	1110.31	1113.67	1116.93	1119.6
323.07 K, m1 = 2	1203.26	1206.02	1209.01	1211.9	1214.88	1217.8	1220.6	1222.88
348.04 K, m1 = 1	1085.66	1088.98	1092.48	1096.02	1099.44	1102.74	1106.07	1108.86
348.04 K, m1 = 2	1192.82	1196	1199.11	1202.1	1205.07	1207.92	1210.85	1213.26
372.99 K, m1 = 1	1072.64	1075.97	1079.63	1083.19	1086.72	1090.2	1093.58	1096.34
372.99 K, m1 = 2	1181.64	1184.73	1187.9	1191.11	1194.19	1197.22	1200.14	1202.66

[Cl-].[Cl-].[Mg+2] [magnesium chloride] + O
mass density [kg/m3]
Conditions	283.15 K	298.12 K	323.07 K	348.04 K	372.99 K	397.97 K	422.94 K	447.94 K	472.96 K
1050 kPa, m1 = 1	1074.73	1070.86	1061.56	1049.32	1034.76	1017.83	999.03	–	–
1050 kPa, m1 = 5	–	1298.01	1288.53	1278.25	1267.42	1255.66	1243.3	1230.19	–
1100 kPa, m1 = 3	1200.48	1194.98	1185.53	1174.63	1162.6	1149.22	1134.62	1118.93	–
10020 kPa, m1 = 1	1078.32	1074.43	1065.03	1052.8	1038.36	1021.72	1003.28	982.73	960.31
10020 kPa, m1 = 5	–	1300.39	1290.86	1280.63	1269.83	1258.16	1245.98	1232.81	1219.23
10100 kPa, m1 = 3	1203.26	1197.76	1188.36	1177.48	1165.51	1152.27	1137.91	1122.27	1105.72
19970 kPa, m1 = 1	1082.31	1078.17	1068.73	1056.56	1042.33	1025.91	1007.77	987.82	965.92
19970 kPa, m1 = 5	–	1302.84	1293.39	1283.18	1272.48	1260.88	1248.69	1235.76	1222.3
20100 kPa, m1 = 3	1206.45	1200.84	1191.36	1180.55	1168.64	1155.47	1141.36	1126	1109.63
29900 kPa, m1 = 1	1086.21	1081.96	1072.46	1060.31	1046.17	1029.97	1012.16	992.59	971.25
29900 kPa, m1 = 5	–	1305.37	1295.97	1285.71	1275.12	1263.46	1251.46	1238.61	1225.27
30100 kPa, m1 = 3	1209.48	1203.93	1194.33	1183.56	1171.77	1158.76	1144.67	1129.62	1113.5
39830 kPa, m1 = 1	1090.04	1085.7	1076	1063.92	1049.91	1033.96	1016.47	997.27	976.5
39830 kPa, m1 = 5	–	1307.91	1298.44	1288.26	1277.64	1266.15	1254.16	1241.42	1228.28
40100 kPa, m1 = 3	1212.45	1206.91	1197.32	1186.6	1174.82	1162.02	1147.96	1133.07	1117.27
49760 kPa, m1 = 1	1093.73	1089.34	1079.49	1067.47	1053.59	1037.86	1020.62	1001.73	981.41
49760 kPa, m1 = 5	–	1310.34	1300.8	1290.69	1280.15	1268.74	1256.84	1244.17	1231.18
50100 kPa, m1 = 3	1215.49	1209.79	1200.25	1189.47	1177.87	1165.1	1151.23	1136.51	1120.96
59680 kPa, m1 = 1	1097.42	1092.83	1082.98	1070.97	1057.17	1041.6	1024.61	1006.15	986.2
59680 kPa, m1 = 5	–	1312.81	1303.27	1293.17	1282.6	1271.25	1259.41	1246.88	1234.02
60100 kPa, m1 = 3	1218.46	1212.66	1203.13	1192.42	1180.77	1168.09	1154.39	1139.92	1124.6
68120 kPa, m1 = 1	1100.57	1095.78	1085.82	1073.88	1060.13	1044.71	1027.95	1009.73	990.1
68120 kPa, m1 = 5	–	1314.82	1305.22	1295.26	1284.68	1273.36	1261.6	1249.11	1236.38
68600 kPa, m1 = 3	1220.98	1215.18	1205.42	1194.89	1183.21	1170.63	1157.07	1142.62	1127.48
